From US20210122730A1, “GLUCOCORTICOID RECEPTOR MODULATORS” (ORIC Pharmaceuticals, Inc., priority 2017, published 2021)

molecular target: T1, GR (Homo sapiens, UniProt P04150); experiment: In Vitro GR Luciferase Reporter Assay (antagonist mode, CHO-K1-GR-MMTV-Luc reporter cells); format: cell-based; settings: antagonist assay with 10 nM Dexamethasone, 18-24 hours
T1 construct: expressed in transfected cells; host or cells: CHO-K1
T1 sequence (P04150 1-777): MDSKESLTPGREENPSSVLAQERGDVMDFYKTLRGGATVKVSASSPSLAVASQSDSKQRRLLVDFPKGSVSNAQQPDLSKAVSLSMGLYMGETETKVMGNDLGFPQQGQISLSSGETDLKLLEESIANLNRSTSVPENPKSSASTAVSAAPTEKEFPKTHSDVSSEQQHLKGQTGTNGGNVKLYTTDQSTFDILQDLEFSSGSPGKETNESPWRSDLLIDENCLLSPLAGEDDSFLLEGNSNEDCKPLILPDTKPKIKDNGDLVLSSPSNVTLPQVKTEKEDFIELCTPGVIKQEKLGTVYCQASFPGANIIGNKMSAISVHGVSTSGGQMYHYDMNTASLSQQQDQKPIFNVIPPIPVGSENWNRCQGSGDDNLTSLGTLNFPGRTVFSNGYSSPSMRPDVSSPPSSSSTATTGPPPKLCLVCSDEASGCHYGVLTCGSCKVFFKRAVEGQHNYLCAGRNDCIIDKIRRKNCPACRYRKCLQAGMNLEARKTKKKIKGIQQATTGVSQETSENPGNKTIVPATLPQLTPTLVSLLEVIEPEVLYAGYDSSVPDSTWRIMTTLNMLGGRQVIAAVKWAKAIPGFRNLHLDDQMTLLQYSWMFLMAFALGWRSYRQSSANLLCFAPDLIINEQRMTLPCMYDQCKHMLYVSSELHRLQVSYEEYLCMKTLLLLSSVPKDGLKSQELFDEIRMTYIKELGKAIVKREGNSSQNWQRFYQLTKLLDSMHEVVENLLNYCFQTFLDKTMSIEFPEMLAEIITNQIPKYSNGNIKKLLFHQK
In short: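 Antagonist mode: compounds (8 serial 1:5 dilutions) added to GR-MMTV-luciferase CHO-K1 reporter cells co-exposed to 10 nM dexamethasone final, in phenol red-free DMEM plus 10% CSS. After roughly 18-24 h at 37° C, OneGlo luminescence read and IC50 calculated.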

IC50, ≤ 100 nM:
CN([C@H]1CCC2=Cc3c(cnn3-c3ccc(F)cc3)C[C@]2(C(=O)c2cc(C(F)(F)F)ccn2)C1)S(=O)(=O)c1ccc(F)cc1 [Example 5, 4-Fluoro-N-((4aS,6S)-1-(4-fluorophenyl)-4a-(4-(trifluoromethyl)picolinoyl)-4,4a,5,6,7,8-hexahydro-1H-benzo[f]indazol-6-yl)-N-methylbenzenesulfonamide]
Cn1cc(S(=O)(=O)N(C2CC2)[C@H]2CCC3=Cc4c(cnn4-c4ccc(F)cc4)C[C@]3(C(=O)c3cc(C(F)(F)F)ccn3)C2)cn1 [Example 88, N-cyclopropyl-N-((4aS,6S)-1-(4-fluorophenyl)-4a-(4-(trifluoromethyl)picolinoyl)-4,4a,5,6,7,8-hexahydro-1H-benzo[f]indazol-6-yl)-1-methyl-1H-pyrazole-4-sulfonamide]
CN([C@H]1CCC2=Cc3c(cnn3-c3ccc(F)cc3)C[C@]2(C(=O)c2cc(C(F)(F)F)ccn2)C1)S(=O)(=O)c1ccn(C)n1 [Example 98, N-((4aS,6S)-1-(4-fluorophenyl)-4a-(4-(trifluoromethyl)picolinoyl)-4,4a,5,6,7,8-hexahydro-1H-benzo[f]indazol-6-yl)-N,1-dimethyl-1H-pyrazole-3-sulfonamide]
Cn1cc(S(=O)(=O)N(CC2CC2)[C@H]2CCC3=Cc4c(cnn4-c4ccc(F)cc4)C[C@]3(C(=O)c3cc(C(F)(F)F)ccn3)C2)cn1 [Example 103, N-(cyclopropylmethyl)-N-((4aS,6S)-1-(4-fluorophenyl)-4a-(4-(trifluoromethyl)picolinoyl)-4,4a,5,6,7,8-hexahydro-1H-benzo[f]indazol-6-yl)-1-methyl-1H-pyrazole-4-sulfonamide]

same assay, conditions: antagonist mode, 10 nM Dexamethasone

IC50, ≤ 100 nM:
Cn1cc(S(=O)(=O)C[C@H]2CCC3=Cc4c(cnn4-c4ccc(F)cc4)C[C@]3(C(=O)c3cc(C(F)(F)F)ccn3)C2)cn1 (single isomer, unassigned) [Example 118]
Cn1ccc(S(=O)(=O)N(CC(F)(F)F)[C@H]2CCC3=Cc4c(cnn4-c4ccc(F)cc4)C[C@]3(C(=O)c3cc(C(F)(F)F)ccn3)C2)n1 [Example 111, N-((4aS,6S)-1-(4-Fluorophenyl)-4a-(4-(trifluoromethyl)picolinoyl)-4,4a,5,6,7,8-hexahydro-1H-benzo[f]indazol-6-yl)-1-methyl-N-(2,2,2-trifluoroethyl)-1H-pyrazole-3-sulfonamide]
Cn1ccc(S(=O)(=O)[C@H]2CCC3=Cc4c(cnn4-c4ccc(F)cc4)C[C@]3(C(=O)c3cc(C(F)(F)F)ccn3)C2)n1 [Example 113, ((4aS,6S)-1-(4-Fluorophenyl)-6-((1-methyl-1H-pyrazol-3-yl)sulfonyl)-1,4,5,6,7,8-hexahydro-4aH-benzo[f]indazol-4a-yl)(4-(trifluoromethyl)pyridin-2-yl)methanone]
Cn1ccc(S(=O)(=O)N(C2CC2)[C@H]2CCC3=Cc4c(cnn4-c4ccc(F)cc4)C[C@]3(C(=O)c3cc(C(F)(F)F)ccn3)C2)n1 [Example 138, N-cyclopropyl-N-((4aS,6S)-1-(4-fluorophenyl)-4a-(4-(trifluoromethyl)picolinoyl)-4,4a,5,6,7,8-hexahydro-1H-benzo[f]indazol-6-yl)-1-methyl-1H-pyrazole-3-sulfonamide]
O=C(c1ncc(C(F)(F)F)s1)[C@]12Cc3cnn(-c4ccc(F)cc4)c3C=C1CC[C@H](N(C1CC1)S(=O)(=O)c1ccc(F)cc1)C2 [Example 177, N-cyclopropyl-4-fluoro-N-((4aS,6S)-1-(4-fluorophenyl)-4a-(5-(trifluoromethyl)thiazole-2-carbonyl)-4,4a,5,6,7,8-hexahydro-1H-benzo[f]indazol-6-yl)benzenesulfonamide]
Cn1ccc(S(=O)(=O)N(CC2CC2)[C@H]2CCC3=Cc4c(cnn4-c4ccc(F)cc4)C[C@]3(C(=O)c3ncc(C(F)(F)F)s3)C2)n1 [Example 179, N-(cyclopropylmethyl)-N-((4aS,6S)-1-(4-fluorophenyl)-4a-(5-(trifluoromethyl)thiazole-2-carbonyl)-4,4a,5,6,7,8-hexahydro-1H-benzo[f]indazol-6-yl)-1-methyl-1H-pyrazole-3-sulfonamide]
CC(C)N([C@H]1CCC2=Cc3c(cnn3-c3ccc(F)cc3)C[C@]2(C(=O)c2cc(C(F)(F)F)ccn2)C1)S(=O)(=O)c1ccn(C)n1 [Example 186, N-((4aS,6S)-1-(4-fluorophenyl)-4a-(4-(trifluoromethyl)picolinoyl)-4,4a,5,6,7,8-hexahydro-1H-benzo[f]indazol-6-yl)-N-isopropyl-1-methyl-1H-pyrazole-3-sulfonamide]
CC(C)N(C(=O)c1cnn(C)c1)[C@H]1CCC2=Cc3c(cnn3-c3ccc(F)cc3)C[C@]2(C(=O)c2ncc(C(F)(F)F)s2)C1 [Example 211, N-((4aS,6S)-1-(4-fluorophenyl)-4a-(5-(trifluoromethyl)thiazole-2-carbonyl)-4,4a,5,6,7,8-hexahydro-1H-benzo[f]indazol-6-yl)-N-isopropyl-1-methyl-1H-pyrazole-4-carboxamide]
Cn1ccc(S(=O)(=O)N(C2CC(F)(F)C2)[C@H]2CCC3=Cc4c(cnn4-c4ccc(F)cc4)C[C@]3(C(=O)c3cc(C(F)(F)F)ccn3)C2)n1 [Example 227, N-(3,3-difluorocyclobutyl)-N-((4aS,6S)-1-(4-fluorophenyl)-4a-(4-(trifluoromethyl)picolinoyl)-4,4a,5,6,7,8-hexahydro-1H-benzo[f]indazol-6-yl)-1-methyl-1H-pyrazole-3-sulfonamide]
O=C(c1cc(Cl)ccn1)[C@]12Cc3cnn(-c4ccc(F)cc4)c3C=C1CC[C@H](N(C1CC1)S(=O)(=O)c1ccc(F)cc1)C2 [Example 232, N-((4aS,6S)-4a-(4-chloropicolinoyl)-1-(4-fluorophenyl)-4,4a,5,6,7,8-hexahydro-1H-benzo[f]indazol-6-yl)-N-cyclopropyl-4-fluorobenzenesulfonamide]
Cn1cc(S(=O)(=O)N(CC(C)(C)O)[C@H]2CCC3=Cc4c(cnn4-c4ccc(F)cc4)C[C@]3(C(=O)c3cc(F)ccn3)C2)cn1 [Example 248, N-((4aS,6S)-1-(4-fluorophenyl)-4a-(4-fluoropicolinoyl)-4,4a,5,6,7,8-hexahydro-1H-benzo[f]indazol-6-yl)-N-(2-hydroxy-2-methylpropyl)-1-methyl-1H-pyrazole-4-sulfonamide]
Cn1ccc(S(=O)(=O)N(C2CC(F)(F)C2)[C@H]2CCC3=Cc4c(cnn4-c4ccc(F)cc4)C[C@]3(C(=O)c3ncc(C(F)(F)F)s3)C2)n1 [Example 270, N-(3,3-difluorocyclobutyl)-N-((4aS,6S)-1-(4-fluorophenyl)-4a-(5-(trifluoromethyl)thiazole-2-carbonyl)-4,4a,5,6,7,8-hexahydro-1H-benzo[f]indazol-6-yl)-1-methyl-1H-pyrazole-3-sulfonamide]
Cn1ccc(S(=O)(=O)N([C@H]2CCC3=Cc4c(cnn4-c4ccc(F)cc4)C[C@]3(C(=O)c3ncc(C(F)(F)F)s3)C2)[C@H]2C[C@@](C)(O)C2)n1 [Example 277, N-((4aS,6S)-1-(4-fluorophenyl)-4a-(5-(trifluoromethyl)thiazole-2-carbonyl)-4,4a,5,6,7,8-hexahydro-1H-benzo[f]indazol-6-yl)-N-((1s,3R)-3-hydroxy-3-methylcyclobutyl)-1-methyl-1H-pyrazole-3-sulfonamide]
Cn1cnc(S(=O)(=O)N(C2CC2)[C@H]2CCC3=Cc4c(cnn4-c4ccc(F)cc4)C[C@]3(C(=O)c3ncc(C(F)(F)F)s3)C2)n1 [Example 305, N-cyclopropyl-N-((4aS,6S)-1-(4-fluorophenyl)-4a-(5-(trifluoromethyl)thiazole-2-carbonyl)-4,4a,5,6,7,8-hexahydro-1H-benzo[f]indazol-6-yl)-1-methyl-1H-1,2,4-triazole-3-sulfonamide]
Cn1cnc(S(=O)(=O)N(C2CC2)[C@H]2CCC3=Cc4c(cnn4-c4ccc(F)cc4)C[C@]3(C(=O)c3cc(C(F)(F)F)ccn3)C2)n1 [Example 306, N-cyclopropyl-N-((4aS,6S)-1-(4-fluorophenyl)-4a-(4-(trifluoromethyl)picolinoyl)-4,4a,5,6,7,8-hexahydro-1H-benzo[f]indazol-6-yl)-1-methyl-1H-1,2,4-triazole-3-sulfonamide]
